ChEMBL document CHEMBL4804286, “3-amino-4-(4-(4 (dimethylcarbamoyl) phenyl)-1,4-diazepan-1-yl) thieno [2,3-b] pyridine-2-carboxamide for use in cancer therapy and formulations comprising the same” (2020)
“And” between values parts separate entries of the source, which are not always exact repeats. Identical values can stand only once. The source made the active and inactive calls. No cut-off for these calls is given here.

Columns and labels:
[1] = molecular target: Serine/threonine-protein kinase 36 (Homo sapiens) (UniProt Q9NRP7); assay: Inhibition of human STK36 assessed as percent of control at 2000 nM by KINOMEscan assay relative to control; parameters: scale not given: the % may be the effect or the level left
[2] = molecular target: SRSF protein kinase 1 (Homo sapiens) (UniProt Q96SB4); assay: Inhibition of human SRPK1 assessed as percent of control at 2000 nM by KINOMEscan assay relative to control; parameters: scale not given: the % may be the effect or the level left
[3] = molecular target: STE20-like serine/threonine-protein kinase (Homo sapiens) (UniProt Q9H2G2); assay: Inhibition of human SLK assessed as percent of control at 2000 nM by KINOMEscan assay relative to control; parameters: scale not given: the % may be the effect or the level left
[4] = molecular target: Phosphatidylinositol 4,5-bisphosphate 3-kinase catalytic subunit gamma isoform (Homo sapiens) (UniProt P48736); assay: Inhibition of human PIK3CG assessed as percent of control at 2000 nM by KINOMEscan assay relative to control; parameters: scale not given: the % may be the effect or the level left
[5] = molecular target: Glycogen synthase kinase-3 beta (Homo sapiens) (UniProt P49841); assay: Inhibition of human GSK3B assessed as percent of control at 2000 nM by KINOMEscan assay relative to control; parameters: scale not given: the % may be the effect or the level left
[6] = molecular target: Activin receptor type-1-like (Homo sapiens) (UniProt P37023); assay: Inhibition of human ACVRL1 assessed as percent of control at 2000 nM by KINOMEscan assay relative to control; parameters: scale not given: the % may be the effect or the level left
Myc-CaP = assay: Inhibition of colony formation in murine castration-resistant Myc-CaP cells at 1 uM in presence of 5 uM enzalutamide by clonogenic assay relative to control; type: functional; details: Mus musculus
[7] = molecular target: Serine/threonine-protein kinase NLK (Homo sapiens) (UniProt Q9UBE8); assay: Inhibition of human NLK assessed as percent of control at 2000 nM by KINOMEscan assay relative to control; parameters: scale not given: the % may be the effect or the level left
[8] = molecular target: Ephrin type-A receptor 5 (Homo sapiens) (UniProt P54756); assay: Inhibition of human EPHA5 assessed as percent of control at 2000 nM by KINOMEscan assay relative to control; parameters: scale not given: the % may be the effect or the level left
[9] = molecular target: Tyrosine-protein kinase receptor Tie-1 (Homo sapiens) (UniProt P35590); assay: Inhibition of human TIE1 assessed as percent of control at 2000 nM by KINOMEscan assay relative to control; parameters: scale not given: the % may be the effect or the level left
[10] = molecular target: Interleukin-1 receptor-associated kinase 1 (Homo sapiens) (UniProt P51617); assay: Inhibition of human IRAK1 assessed as percent of control at 2000 nM by KINOMEscan assay relative to control; parameters: scale not given: the % may be the effect or the level left
[11] = molecular target: Cyclin-dependent kinase 3 (Homo sapiens) (UniProt Q00526); assay: Inhibition of human CDK3 assessed as percent of control at 2000 nM by KINOMEscan assay relative to control; parameters: scale not given: the % may be the effect or the level left
[12] = molecular target: 3-phosphoinositide-dependent protein kinase 1 (Homo sapiens) (UniProt O15530); assay: Inhibition of human PDPK1 assessed as percent of control at 2000 nM by KINOMEscan assay relative to control; parameters: scale not given: the % may be the effect or the level left
[13] = molecular target: Serine/threonine-protein kinase Chk2 (Homo sapiens) (UniProt O96017); assay: Inhibition of human CHEK2 assessed as percent of control at 2000 nM by KINOMEscan assay relative to control; parameters: scale not given: the % may be the effect or the level left
[14] = molecular target: Serine/threonine-protein kinase D1 (Homo sapiens) (UniProt Q15139); assay: Inhibition of human PRKD1 assessed as percent of control at 2000 nM by KINOMEscan assay relative to control; parameters: scale not given: the % may be the effect or the level left
[15] = molecular target: Serine/threonine-protein kinase pim-1 (Homo sapiens) (UniProt P11309); assay: Inhibition of human PIM1 assessed as percent of control at 2000 nM by KINOMEscan assay relative to control; parameters: scale not given: the % may be the effect or the level left
[16] = molecular target: Casein kinase I isoform epsilon (Homo sapiens) (UniProt P49674); details: INHIBITOR, dose 2000.0 nM
Description: Inhibition of human CSNK1E at 2000 nM by KINOMEscan assay

[17] = tested on: Epidermal growth factor receptor (Homo sapiens), P00533 [UNDEFINED MUTATION]; assay: Inhibition of human EGFR L747-E749del/A750P double mutant assessed as percent of control at 2000 nM by KINOMEscan assay relative to control; parameters: scale not given: the % may be the effect or the level left
[18] = molecular target: Vascular endothelial growth factor receptor 2 (Homo sapiens) (UniProt P35968); assay: Inhibition of human VEGFR2 assessed as percent of control at 2000 nM by KINOMEscan assay relative to control; parameters: scale not given: the % may be the effect or the level left
[19] = molecular target: Serine/threonine-protein kinase pim-3 (Homo sapiens) (UniProt Q86V86); assay: Inhibition of human PIM3 assessed as percent of control at 2000 nM by KINOMEscan assay relative to control; parameters: scale not given: the % may be the effect or the level left
[20] = molecular target: Cyclin-dependent kinase 8 (Homo sapiens) (UniProt P49336); details: INHIBITOR, dose 2000.0 nM
Description: Inhibition of human CDK8 at 2000 nM by KINOMEscan assay

[21] = molecular target: Serine/threonine-protein kinase TBK1 (Homo sapiens) (UniProt Q9UHD2); assay: Inhibition of human TBK1 assessed as percent of control at 2000 nM by KINOMEscan assay relative to control; parameters: scale not given: the % may be the effect or the level left
[22] = molecular target: Serine/threonine-protein kinase MRCK beta (Homo sapiens) (UniProt Q9Y5S2); assay: Inhibition of human MRCKB assessed as percent of control at 2000 nM by KINOMEscan assay relative to control; parameters: scale not given: the % may be the effect or the level left
[23] = molecular target: Serine/threonine-protein kinase MARK1 (Homo sapiens) (UniProt Q9P0L2); assay: Inhibition of human MARK1 assessed as percent of control at 2000 nM by KINOMEscan assay relative to control; parameters: scale not given: the % may be the effect or the level left
[24] = molecular target: Serine/threonine-protein kinase 38 (Homo sapiens) (UniProt Q15208); assay: Inhibition of human NDR1 assessed as percent of control at 2000 nM by KINOMEscan assay relative to control; parameters: scale not given: the % may be the effect or the level left
CWR22R = assay: Antitumor activity against human 22Rv1 cells expressing AR-V7 xenografted in male nude mouse assessed as suppression of tumor growth at 50 mg/kg, administered once a day for 40 days; type: functional, organism-based
[25] = molecular target: MAP kinase-interacting serine/threonine-protein kinase 2 (Homo sapiens) (UniProt Q9HBH9); assay: Inhibition of human MKNK2 assessed as percent of control at 2000 nM by KINOMEscan assay relative to control; parameters: scale not given: the % may be the effect or the level left
[26] = molecular target: Dual specificity tyrosine-phosphorylation-regulated kinase 2 (Homo sapiens) (UniProt Q92630); assay: Inhibition of human DYRK2 assessed as percent of control at 2000 nM by KINOMEscan assay relative to control; parameters: scale not given: the % may be the effect or the level left
[27] = molecular target: Serine/threonine-protein kinase PAK 2 (Homo sapiens) (UniProt Q13177); assay: Inhibition of human PAK2 assessed as percent of control at 2000 nM by KINOMEscan assay relative to control; parameters: scale not given: the % may be the effect or the level left
[28] = molecular target: Cyclin-dependent kinase-like 2 (Homo sapiens) (UniProt Q92772); assay: Inhibition of human CDKL2 assessed as percent of control at 2000 nM by KINOMEscan assay relative to control; parameters: scale not given: the % may be the effect or the level left
[29] = molecular target: Activin receptor type-2B (Homo sapiens) (UniProt Q13705); assay: Inhibition of human ACVR2B assessed as percent of control at 2000 nM by KINOMEscan assay relative to control; parameters: scale not given: the % may be the effect or the level left
[30] = molecular target: Casein kinase I isoform gamma-1 (Homo sapiens) (UniProt Q9HCP0); assay: Inhibition of human CSNK1G1 assessed as percent of control at 2000 nM by KINOMEscan assay relative to control; parameters: scale not given: the % may be the effect or the level left

Chain of Serine/threonine-protein kinase 38 (Homo sapiens) (Q15208 2-465 limits assumed): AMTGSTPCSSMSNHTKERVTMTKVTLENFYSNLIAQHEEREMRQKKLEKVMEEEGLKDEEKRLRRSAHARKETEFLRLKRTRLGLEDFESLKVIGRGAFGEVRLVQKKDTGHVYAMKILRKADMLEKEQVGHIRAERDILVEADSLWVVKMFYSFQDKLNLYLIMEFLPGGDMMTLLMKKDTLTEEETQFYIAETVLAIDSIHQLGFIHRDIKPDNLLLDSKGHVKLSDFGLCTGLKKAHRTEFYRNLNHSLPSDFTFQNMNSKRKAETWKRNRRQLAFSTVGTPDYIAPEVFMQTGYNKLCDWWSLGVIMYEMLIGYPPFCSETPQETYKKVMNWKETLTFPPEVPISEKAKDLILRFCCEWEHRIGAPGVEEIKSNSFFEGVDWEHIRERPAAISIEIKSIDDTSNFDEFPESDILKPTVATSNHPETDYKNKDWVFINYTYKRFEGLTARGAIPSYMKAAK
Chain of Ephrin type-A receptor 5 (Homo sapiens) (P54756 whole entry): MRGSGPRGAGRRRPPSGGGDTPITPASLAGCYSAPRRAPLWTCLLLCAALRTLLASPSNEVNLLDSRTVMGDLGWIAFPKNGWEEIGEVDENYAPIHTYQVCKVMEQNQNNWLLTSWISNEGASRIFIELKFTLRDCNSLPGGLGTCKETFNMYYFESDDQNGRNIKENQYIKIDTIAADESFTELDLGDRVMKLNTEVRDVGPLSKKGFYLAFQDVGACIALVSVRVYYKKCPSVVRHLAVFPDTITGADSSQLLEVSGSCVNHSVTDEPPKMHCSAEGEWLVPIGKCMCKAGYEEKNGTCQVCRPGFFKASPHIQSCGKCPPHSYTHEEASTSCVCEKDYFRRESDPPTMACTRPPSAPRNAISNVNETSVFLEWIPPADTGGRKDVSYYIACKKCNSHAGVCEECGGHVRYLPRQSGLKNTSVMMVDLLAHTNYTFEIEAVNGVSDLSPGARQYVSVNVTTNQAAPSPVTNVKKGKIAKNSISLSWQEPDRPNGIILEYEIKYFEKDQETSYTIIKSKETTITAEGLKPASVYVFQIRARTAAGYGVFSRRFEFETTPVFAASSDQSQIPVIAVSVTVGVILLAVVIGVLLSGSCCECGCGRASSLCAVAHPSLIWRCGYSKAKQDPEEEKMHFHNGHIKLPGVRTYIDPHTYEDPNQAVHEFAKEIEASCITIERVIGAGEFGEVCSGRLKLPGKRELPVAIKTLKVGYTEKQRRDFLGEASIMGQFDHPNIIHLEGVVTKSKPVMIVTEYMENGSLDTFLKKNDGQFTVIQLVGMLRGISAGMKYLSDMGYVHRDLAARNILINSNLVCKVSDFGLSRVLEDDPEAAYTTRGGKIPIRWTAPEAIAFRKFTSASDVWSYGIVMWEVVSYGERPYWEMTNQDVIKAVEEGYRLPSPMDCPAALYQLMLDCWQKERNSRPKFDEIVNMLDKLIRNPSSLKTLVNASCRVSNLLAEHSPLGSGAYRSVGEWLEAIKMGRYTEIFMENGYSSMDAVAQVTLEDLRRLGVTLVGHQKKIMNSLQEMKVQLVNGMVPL
Chain of Serine/threonine-protein kinase D1 (Homo sapiens) (Q15139 whole entry): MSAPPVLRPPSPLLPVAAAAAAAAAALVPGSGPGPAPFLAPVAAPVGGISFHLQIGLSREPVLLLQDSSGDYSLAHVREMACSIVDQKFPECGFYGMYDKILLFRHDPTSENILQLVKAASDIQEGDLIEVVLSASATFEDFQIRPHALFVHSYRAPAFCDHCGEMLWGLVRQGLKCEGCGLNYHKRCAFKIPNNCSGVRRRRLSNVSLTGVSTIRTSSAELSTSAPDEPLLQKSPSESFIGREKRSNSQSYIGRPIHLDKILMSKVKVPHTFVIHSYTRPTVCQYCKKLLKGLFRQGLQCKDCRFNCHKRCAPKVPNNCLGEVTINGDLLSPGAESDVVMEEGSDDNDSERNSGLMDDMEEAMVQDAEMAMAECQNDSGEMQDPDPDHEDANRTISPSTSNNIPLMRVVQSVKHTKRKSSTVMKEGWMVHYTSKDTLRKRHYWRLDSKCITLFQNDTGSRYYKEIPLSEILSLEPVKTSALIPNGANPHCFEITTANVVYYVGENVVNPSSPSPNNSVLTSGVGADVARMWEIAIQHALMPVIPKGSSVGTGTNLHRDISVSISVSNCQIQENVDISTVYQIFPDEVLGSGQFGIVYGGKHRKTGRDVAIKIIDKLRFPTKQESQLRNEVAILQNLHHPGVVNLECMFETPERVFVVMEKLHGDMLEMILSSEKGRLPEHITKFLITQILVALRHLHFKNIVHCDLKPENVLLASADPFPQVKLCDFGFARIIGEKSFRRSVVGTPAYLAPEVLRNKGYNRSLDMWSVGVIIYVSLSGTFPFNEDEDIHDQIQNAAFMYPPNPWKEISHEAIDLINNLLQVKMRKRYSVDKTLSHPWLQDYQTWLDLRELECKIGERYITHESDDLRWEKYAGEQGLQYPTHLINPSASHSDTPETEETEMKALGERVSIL
Chain of SRSF protein kinase 1 (Homo sapiens) (Q96SB4 whole entry): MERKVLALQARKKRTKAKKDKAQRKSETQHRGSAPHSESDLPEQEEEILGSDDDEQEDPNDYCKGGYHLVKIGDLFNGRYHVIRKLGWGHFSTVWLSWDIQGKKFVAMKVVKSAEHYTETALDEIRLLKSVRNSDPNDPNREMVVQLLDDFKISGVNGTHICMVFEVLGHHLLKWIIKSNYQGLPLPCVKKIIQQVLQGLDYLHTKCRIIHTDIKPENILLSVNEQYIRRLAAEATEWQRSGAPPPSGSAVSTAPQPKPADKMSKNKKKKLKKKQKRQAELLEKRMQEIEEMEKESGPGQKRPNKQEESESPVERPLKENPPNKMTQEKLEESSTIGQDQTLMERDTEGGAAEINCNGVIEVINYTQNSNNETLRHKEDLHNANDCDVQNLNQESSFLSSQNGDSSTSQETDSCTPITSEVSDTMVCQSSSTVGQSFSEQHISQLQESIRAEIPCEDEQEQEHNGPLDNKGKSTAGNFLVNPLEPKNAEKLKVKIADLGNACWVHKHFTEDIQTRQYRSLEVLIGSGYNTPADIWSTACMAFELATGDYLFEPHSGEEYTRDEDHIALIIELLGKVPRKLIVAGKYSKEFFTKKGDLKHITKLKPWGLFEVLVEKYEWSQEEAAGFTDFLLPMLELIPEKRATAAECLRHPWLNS
Chain of Serine/threonine-protein kinase NLK (Homo sapiens) (Q9UBE8 whole entry): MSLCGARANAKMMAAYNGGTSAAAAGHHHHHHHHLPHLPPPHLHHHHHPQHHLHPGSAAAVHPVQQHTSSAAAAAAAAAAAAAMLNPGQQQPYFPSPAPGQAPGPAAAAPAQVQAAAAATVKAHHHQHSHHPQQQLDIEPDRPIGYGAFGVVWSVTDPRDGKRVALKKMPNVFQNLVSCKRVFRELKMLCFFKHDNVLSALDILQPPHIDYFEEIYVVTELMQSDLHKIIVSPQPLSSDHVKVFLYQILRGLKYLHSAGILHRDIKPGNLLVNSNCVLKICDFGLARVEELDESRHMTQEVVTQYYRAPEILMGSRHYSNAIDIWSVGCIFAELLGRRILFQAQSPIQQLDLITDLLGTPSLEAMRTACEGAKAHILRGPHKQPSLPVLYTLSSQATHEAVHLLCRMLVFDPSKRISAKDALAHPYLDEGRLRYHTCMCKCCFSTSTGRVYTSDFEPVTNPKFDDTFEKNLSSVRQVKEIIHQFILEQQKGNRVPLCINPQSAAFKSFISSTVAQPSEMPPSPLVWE
Chain of Epidermal growth factor receptor (Homo sapiens), P00533 [UNDEFINED MUTATION] (P00533 whole entry, looked up, stated change not applied): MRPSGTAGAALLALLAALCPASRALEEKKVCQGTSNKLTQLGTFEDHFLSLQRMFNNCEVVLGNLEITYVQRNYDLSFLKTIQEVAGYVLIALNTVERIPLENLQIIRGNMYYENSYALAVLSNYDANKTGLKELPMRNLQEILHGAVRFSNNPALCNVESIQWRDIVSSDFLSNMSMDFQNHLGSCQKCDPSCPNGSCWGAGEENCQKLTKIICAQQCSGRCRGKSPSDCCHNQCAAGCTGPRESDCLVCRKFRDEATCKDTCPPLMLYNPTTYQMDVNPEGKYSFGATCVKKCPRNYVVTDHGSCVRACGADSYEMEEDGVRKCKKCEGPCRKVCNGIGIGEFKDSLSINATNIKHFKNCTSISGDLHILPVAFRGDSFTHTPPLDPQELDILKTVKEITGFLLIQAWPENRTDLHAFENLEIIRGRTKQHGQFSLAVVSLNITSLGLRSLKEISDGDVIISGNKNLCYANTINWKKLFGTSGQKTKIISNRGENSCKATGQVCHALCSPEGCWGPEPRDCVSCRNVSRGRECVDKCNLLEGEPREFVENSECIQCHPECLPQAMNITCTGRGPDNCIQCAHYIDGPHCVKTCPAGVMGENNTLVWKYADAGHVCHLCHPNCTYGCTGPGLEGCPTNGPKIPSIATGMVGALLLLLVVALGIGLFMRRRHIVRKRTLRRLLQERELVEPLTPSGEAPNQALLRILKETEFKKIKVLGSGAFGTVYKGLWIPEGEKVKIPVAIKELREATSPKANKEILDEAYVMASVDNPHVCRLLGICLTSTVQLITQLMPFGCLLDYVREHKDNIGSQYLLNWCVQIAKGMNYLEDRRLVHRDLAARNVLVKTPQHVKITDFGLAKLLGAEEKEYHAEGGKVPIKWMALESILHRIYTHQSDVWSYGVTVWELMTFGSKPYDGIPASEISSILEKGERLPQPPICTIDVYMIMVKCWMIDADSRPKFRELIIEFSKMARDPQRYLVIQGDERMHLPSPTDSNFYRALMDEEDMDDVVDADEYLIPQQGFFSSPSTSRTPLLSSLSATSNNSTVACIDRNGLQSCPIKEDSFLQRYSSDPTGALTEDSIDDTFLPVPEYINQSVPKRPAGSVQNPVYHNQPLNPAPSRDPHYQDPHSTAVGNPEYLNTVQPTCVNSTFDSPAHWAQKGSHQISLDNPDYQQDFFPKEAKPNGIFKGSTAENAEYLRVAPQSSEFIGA

## CN(C)C(=O)c1ccc(N2CCCN(c3ccnc4sc(C(N)=O)c(N)c34)CC2)cc1
[1]
  Activity: 100%
[2]
  Activity: 100% and 97%
[3]
  Activity: 56% and 54%
[4]
  Activity: 79% and 76%
[5]
  Activity: 79% and 77%
[6]
  Activity: 99% and 100%
Myc-CaP
  inhibition: Active
[7]
  Activity: 98%
[8]
  Activity: 89% and 96%
[9]
  Activity: 90% and 96%
[10]
  Activity: 94% and 84%
[11]
  Activity: 92% and 97%
[12]
  Activity: 100% and 96%
[13]
  Activity: 92%
[14]
  Activity: 88% and 92%
[15]
  Activity: 88% and 100%
[16]
  inhibition: > 65%
[17]
  Activity: 99% and 100%
[18]
  Activity: 67% and 84%
[19]
  Activity: 89% and 98%
[20]
  inhibition: > 65%
[21]
  Activity: 99% and 97%
[22]
  Activity: 96% and 100%
[23]
  Activity: 100%
[24]
  Activity: 100% and 80%
CWR22R
  Activity: Active
[25]
  Activity: 83% and 69%
[26]
  Activity: 100% and 97%
[27]
  Activity: 91% and 94%
[28]
  Activity: 86% and 96%
[29]
  Activity: 100% and 86%
[30]
  Activity: 90% and 80%
